According to US5212173A, “Alkylaminoalkylamine and ether compounds, processes and intermediates for their preparation, and medicaments containing them” (Kali-Chemie Pharma GmbH, priority 1990, dated 1993):
pEC50: −log10 of the molar value.

Legend:
[1] = test system: isolated guinea pig ileum; assay: Spasmolytic action in vitro against potassium chloride-induced contraction on the isolated guinea pig ileum; format: cell-based; conditions: Cavia porcellus, 50 mmol/l KCl, Tyrode solution, 37° C., read-out: EC50 (approximately 50% reduction in the maximum potassium chloride-induced contraction)
Text: In a physiological saline solution, isolated organ strips from the gastrointestinal tract such as gastric fundus, gastric antrum, duodenum, ileum, proximal colon and distal colon react to the addition of a spasmogen, for example potassium chloride solution, by contracting. This contraction of the organ strips, induced by the addition of spasmogen, is decreased by addition of the compounds of the invention. The extent of the regression of the contraction is an index of the spasmolytic activity of the compounds. Determination of spasmolytic activity against potassium chloride-induced spasms in isolated guinea pig ileum.
Female guinea pigs of the Wiga strain having a body weight of about 300 g were sacrificed. Organ strips from the ileum about 1 cm long were placed in an organ bath of Tyrode solution at 37° C. and mounted in a conventional apparatus for the isotonic measurement of changes in length. Tyrode solution is an aqueous solution containing 136.9 mmol of NaCl, 2.68 mmol of KCl, 2.31 mmol of CaCl2, 1.0 mmol of MgCl2, 11.9 mmol of NaHCO3, 1.45 mmol of NaH2 PO4 and 5.55 mmol of glucose per liter. After an equilibration phase of one hour, 50 mmol/l of potassium chloride were added to the bath fluid to test the sensitivity of the ileum strips. The strips were then rinsed again with Tyrode solution. 50 mmol/l of potassium chloride were then added to the bath fluid again to induce a contraction of the ileum strip due to spasm. As soon as the contraction of the ileum strip due to spasm has reached a constant maximum value, the test substance was added to the bath fluid, and the decrease in the contraction was recorded and calculated as a % of the constant maximum contraction.
The following table A gives the obtained by the test method described above. The example numbers given in the table for the compounds of formula I correspond to the numbers of the subsequent Preparation Examples. In Table A, the EC50 represents the concentration of the test substance in moles/liter in the bath fluid with which an approximately 50% reduction is achieved in the strength of the maximum spasmodic contraction induced in the ileum strip by potassium chloride.

[2] = test system: colon; assay: Activity on spontaneous motility of the colon in anesthetized rats; format: in vivo, rat; conditions: 100 μmol/kg i.p.
Protocol: The effects of the test substances on the amplitudes and frequencies of gastric and intestinal contractions were measured by the following experimental method. Determination of the activity of the test substances on the spontaneous motility of the colon in anesthetized rats.
Fasting rats of the SIV 50 strain having a body weight of 180-250 g were anesthetized with a ketamine/xylazine mixture. The animals were tracheotomised and laparotomised. After applying a pylorus ligature, a stomach tube was inserted into the stomach and connected at the other end to a calibrated pressure transducer (Statham element P 23 ID) via a three-way tap. A corresponding tube was inserted rectally 8 to 9 cm into the colon and likewise connected, in the same manner, to a corresponding calibrated pressure transducer. The stomach of the animals was then filled with 2 to 3 ml of water via the tube. The pressure variations in the colon were recorded before and after administration of the test substances using a Watanabe multicorder (MC 641). The differences between the average amplitudes before and after the treatment were determined, and the percent change in the average amplitudes caused by the test substances relative to the values obtained before the treatment is reported in the following Table B.

[3] = in vivo, po, 1440 min
Protocol: Male mice weighing 20-25 g were orally administered maximum doses of 300 mg/kg of the test substance. The animals were carefully observed for toxic symptoms for three hours. All symptoms and deaths over a period of 24 hours after administration were also recorded. Accompanying symptoms were likewise observed and recorded. If death or strongly toxic symptoms was observed, increasingly smaller doses were administered to further mice until toxic symptoms no longer occurred. The lowest dose which caused death or strongly toxic symptoms is given as the minimum toxic dose in the following Table B.

Compound | pEC50 [1] | Action on spontaneous motility in the colon, % amplitude reduction [2] [%] | Minimum toxic dose in the mouse [3] [mg/kg]
CN(CCO[C@H]1C(C)(C)[C@@H]2CC[C@@]1(C)C2)CCN1CCOCC1 [Example 37] | 4.59 |  | 
COc1cc(CN(C)CCN(C)CCO[C@@H]2C[C@H](C)CC[C@H]2C(C)C)cc(OC)c1OC [Example 19, N-[2-((1R,3R,4S)-1-methyl-4-isopropylcyclohex-3-yloxy)ethyl]-N-(2-[N'-(3,4,5-trimethoxybenzyl)-N'-methylamino]ethyl)-N-methylamine] | 6.27 | 74 | 
CC(C)[C@@H]1CC[C@@H](C)C[C@H]1OCCN(C)CCCCCCN1CCOCC1 [Example 36] | 4.37 |  | 
CC(C)[C@@H]1CC[C@@H](C)C[C@H]1OCCN(C)CCNCc1ccc(Cl)c(Cl)c1 [Example 44] | 5.62 |  | 
COc1ccc(CN(CCN(C)CCO[C@@H]2C[C@H](C)CC[C@H]2C(C)C)C(C)C)cc1OC [Example 23] | 5.82 |  | 
CC(C)N(CCOCC[C@@H]1CC[C@H]2C[C@@H]1C2(C)C)CCN1CCOCC1 [Example 20] | 5.10 | 69 | > 300
CC(C)[C@@H]1CC[C@@H](C)C[C@H]1OCCN(C)CCN(C)CCCCc1ccccc1 [Example 50] | 5.89 |  | 
CC(C)[C@@H]1CC[C@@H](C)C[C@H]1OCCN(C)CCN(Cc1ccccc1)Cc1ccccc1 [Example 48] | 6.17 | 85 | 
CC(C)[C@H]1CC[C@H](C)C[C@@H]1OCCN(C)CCN1CCOCC1 [Example 24] | 4.85 |  | 
CC(C)COCCN(C)CCO[C@@H]1C[C@H](C)CC[C@H]1C(C)C [Example 2, N-[2-((1R,3R,4S)-1-methyl-4-isopropylcyclohex-3-yloxy)ethyl]-N-[2-(2,2-dimethylethoxy)ethyl]-N-methylamine] | 5.70 | 55 | > 300
CN(CCCCCOCC[C@@H]1CC[C@H]2C[C@@H]1C2(C)C)CCN1CCOCC1 [Example 10, N-(5-[2-((1S,2S,5S)-6,6-dimethylbicyclo[3.1.1]hept-2-yl)ethoxy]pentyl)-N-[2-(morpholin-1-yl)ethyl]-N-methylamine] | 4.52 |  | 
CC(C)[C@@H]1CC[C@@H](C)C[C@H]1OCCN(C)CCOCc1ccccc1 [Example 35] | 5.72 |  | 
CC(C)[C@@H]1CC[C@@H](C)C[C@H]1OCCN(C)CCN1CCCC1 [Example 32] | 4.70 |  | 
CC(C)[C@@H]1CC[C@@H](C)C[C@H]1OCCN(C)CCN1CCN(C)CC1 [Example 34] | 4.33 |  | 
CC(C)COCCNCCO[C@@H]1C[C@H](C)CC[C@H]1C(C)C [Example 16, N-[2-((1R,3R,4S)-1-methyl-4-isopropylcyclohex-3-yloxy)ethyl]-N-[2-(2,2-dimethylethoxy)ethyl]amine] | 5.31 |  | 
CN(CCO[C@@H]1C[C@@H]2CC[C@@]1(C)C2(C)C)CCN1CCOCC1 [Example 38] | 4.72 |  | 
CC(C)[C@@H]1CC[C@@H](C)C[C@H]1OCCN(C)CCN1CCOCC1 [Example 1, N-[2-((1R,3R,4S)-1-methyl-4-isopropylcyclohex-3-yloxy)ethyl]-N-[2-(morpholin-1-yl)ethyl]-N-methylamine] | 4.92 | 55 | > 300
CC(C)[C@@H]1CC[C@@H](C)C[C@H]1OCCN(C)CCN(C)CCc1ccccc1Cl [Example 46] | 5.32 |  | 
CCOCCN(C)CCOCC[C@@H]1CC[C@H]2C[C@@H]1C2(C)C [Example 22] | 5.06 | 85 | 100
CN(CCSCC[C@@H]1CC[C@H]2C[C@@H]1C2(C)C)CCN1CCOCC1 [Example 7, N-(2-[2-((1S,2S,5S)-6,6-dimethylbicyclo[3.1.1]hept-2-yl)ethylthio]ethyl)-N-[2-(morpholin-1-yl)ethyl]-N-methylamine] | 4.80 |  | 
COc1ccc(CCN(C)CCN(C)CCOCC[C@@H]2CC[C@H]3C[C@@H]2C3(C)C)cc1OC [Example 21] | 5.44 | 62 | 300
